The source of these data is patent US8530487B1 (priority 2009, dated 2013).

For this experiment, the target named is human TRPA1 (Homo sapiens, UniProt O75762). Briefly: cell-based.

Structures are written as SMILES. Read-outs that look alike come from different tables or passages of the source. Bounds are passed on as bounds.

human TRPA1, sequence (O75762 whole entry): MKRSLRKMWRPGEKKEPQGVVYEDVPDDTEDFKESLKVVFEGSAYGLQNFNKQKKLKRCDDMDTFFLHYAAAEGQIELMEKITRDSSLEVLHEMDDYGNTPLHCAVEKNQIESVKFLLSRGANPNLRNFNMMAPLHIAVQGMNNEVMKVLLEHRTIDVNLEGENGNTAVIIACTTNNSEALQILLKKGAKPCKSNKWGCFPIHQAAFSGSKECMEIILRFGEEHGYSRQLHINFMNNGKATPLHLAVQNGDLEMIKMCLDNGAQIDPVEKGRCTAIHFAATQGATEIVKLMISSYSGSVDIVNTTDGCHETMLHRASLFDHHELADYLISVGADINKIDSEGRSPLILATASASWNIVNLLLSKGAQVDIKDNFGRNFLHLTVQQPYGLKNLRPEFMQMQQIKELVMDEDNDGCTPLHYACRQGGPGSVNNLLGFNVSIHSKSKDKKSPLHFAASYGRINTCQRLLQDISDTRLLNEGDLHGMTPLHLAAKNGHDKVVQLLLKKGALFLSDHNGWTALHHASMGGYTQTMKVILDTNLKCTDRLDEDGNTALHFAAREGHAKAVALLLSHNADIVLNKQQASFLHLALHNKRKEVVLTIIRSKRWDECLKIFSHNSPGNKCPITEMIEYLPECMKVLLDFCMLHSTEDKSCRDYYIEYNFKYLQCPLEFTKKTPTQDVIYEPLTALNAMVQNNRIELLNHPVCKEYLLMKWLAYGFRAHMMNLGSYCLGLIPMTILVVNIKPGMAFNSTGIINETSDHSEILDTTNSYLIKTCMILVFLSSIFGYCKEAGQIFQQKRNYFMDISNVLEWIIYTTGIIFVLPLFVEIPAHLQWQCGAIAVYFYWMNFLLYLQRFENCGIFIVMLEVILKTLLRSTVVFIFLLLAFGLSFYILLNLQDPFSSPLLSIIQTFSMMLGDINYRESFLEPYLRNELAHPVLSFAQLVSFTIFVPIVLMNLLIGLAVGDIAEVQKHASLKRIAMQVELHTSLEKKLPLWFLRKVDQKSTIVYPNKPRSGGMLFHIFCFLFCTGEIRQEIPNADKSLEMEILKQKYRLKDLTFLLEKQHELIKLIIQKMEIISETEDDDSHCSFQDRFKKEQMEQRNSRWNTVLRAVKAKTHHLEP

For `CCN(C(C)=O)c1cccc(C2NC(=O)NC3=C2C(=O)c2ccccc23)c1` (centres unmarked) [Compound 443], the IC50 (read-out: Activity (IC50)) was > 1000 nM. Still for that read-out and setting: in the case of `C=CCOc1cc(Cl)cc(C2NC(=O)NC3=C2C(=O)c2ccccc23)c1` (centres unmarked) [Compound 406] it was < 100 nM; in that of `CCOc1cccc(C2NC(=O)NC3=C2C(=O)c2ccccc23)c1Cl` (centres unmarked) [Compound 423], 500 to 1000 nM; in that of `C=CCOc1cccc(C2NC(=O)NC3=C2C(=O)c2ccccc23)c1F` (centres unmarked) [Compound 401], < 100 nM.

Take `COCCN1C(=O)NC(c2cccc(OC)c2)C2=C1c1ccccc1C2=O` (centres unmarked) [Compound 627]: the IC50 (read-out: Activity (IC50)) lay in the range of 100 to 500 nM. The same measure, in the same setting: the figure for `CCCOc1cc(F)cc(C2NC(=O)NC3=C2C(=O)c2ccccc23)c1F` (centres unmarked) [Compound 404] is < 100 nM; for `N#CN=C1NC2=C(C(=O)c3ccccc32)C(c2cccc(C#N)c2)N1` (centres unmarked) [Compound 955] it is > 1000 nM. On the same count and under the same terms, the figure for `C=CCOc1ccc(Cl)c(C2NC(=O)NC3=C2C(=O)c2ccccc23)c1` (centres unmarked) [Compound 415] is 100 to 500 nM. The same measure, in the same setting: the figure for `CCOc1cccc(C2NC(=O)N(CC(=O)O)C3=C2C(=O)c2ccccc23)c1` (centres unmarked) [Compound 610] is > 1000 nM; for `CCOc1cccc(C2NC(=O)N(CC(=O)OC(C)(C)C)C3=C2C(=O)c2ccccc23)c1` (centres unmarked) [Compound 609] it is 500 to 1000 nM.

Compound `O=C1C2=C(NC(=S)NC2c2cccnc2)c2ccccc21` (centres unmarked) [Compound 33] yielded an IC50 of 500 to 1000 nM. On to `CCCC(=O)c1cccc(C2NC(=O)NC3=C2C(=O)c2cccnc23)c1` (centres unmarked) [Compound 909], for which the IC50 (read-out: Activity (IC50)) was in the range of 100 to 500 nM. With `O=C1NC2=C(C(=O)c3ccccc32)C(c2cccc(OC(=O)C3CC3)c2)N1` (centres unmarked) [Compound 459], under “read-out: Activity (IC50)”, the IC50 is > 1000 nM. Still for that read-out and setting: in the case of `CCOc1cccc(C2NC(=O)NC3=C2C(=O)c2ccccc23)c1` (centres unmarked) [Compound 602] it was 100 to 500 nM; in that of `O=C1NC2=C(C(=O)c3ccccc32)C(c2cccc(OC(F)F)c2)N1` (centres unmarked) [Compound 414], 100 to 500 nM; in that of `CCCOc1cccc(C2NC(=O)N(C)C3=C2C(=O)c2ccccc23)c1` (centres unmarked) [Compound 645], < 100 nM. On to `CCOc1cccc(C2NC(=O)N(Cc3ccccn3)C3=C2C(=O)c2ccccc23)c1` (centres unmarked) [Compound 611], for which, under “read-out: Activity (IC50)”, the IC50 is > 1000 nM.

In the case of `COc1ccc(Cl)c(C2NC(=O)NC3=C2C(=O)c2ccccc23)c1` (centres unmarked) [Compound 429], the IC50 (read-out: Activity (IC50)) is > 1000 nM. Same read-out and setting: in the case of `CCN1C(=O)NC(c2cccc(OC)c2)C2=C1c1ccccc1C2=O` (centres unmarked) [Compound 623] it was 100 to 500 nM. Take `O=C1C2=C(NC(=S)NC2c2ccccc2O)c2ccccc21` (centres unmarked) [Compound 15]: the IC50 is < 100 nM. With `C=CCOc1cccc(C2NC(=O)N(Cc3ccccc3)C3=C2C(=O)c2ccccc23)c1` (centres unmarked) [Compound 632], the IC50 (read-out: Activity (IC50)) is < 100 nM. Still for that read-out and setting: the figure for `N#Cc1cccc(C2NC(=S)NC3=C2C(=O)c2ccccc23)c1` (centres unmarked) [Compound 307] is < 100 nM; for `C=CCN1C(=O)NC(c2cccc(OCC)c2)C2=C1c1ccccc1C2=O` (centres unmarked) [Compound 614] it is 100 to 500 nM. Same read-out and setting: in the case of `CCCOc1cccc(C2NC(=NC#N)NC3=C2C(=O)c2ccccc23)c1` (centres unmarked) [Compound 960] it was > 1000 nM. Same read-out and setting: the figure for `O=C1NC2=C(C(=O)c3ccccc32)C(c2cc(O)ccc2Br)N1` (centres unmarked) [Compound 102] is 100 to 500 nM; for `COc1cccc(C2NC(=O)N(Cc3ccccc3)C3=C2C(=O)c2ccccc23)c1` (centres unmarked) [Compound 625] it is 100 to 500 nM.

As for `CCCOc1cccc(C2NC(=O)N(CC)C3=C2C(=O)c2ccccc23)c1` (centres unmarked) [Compound 646], the half-inhibitory concentration (IC50) (read-out: Activity (IC50)) is < 100 nM. In the case of `Nc1cccc(C2NC(=O)NC3=C2C(=O)c2ccccc23)c1` (centres unmarked) [Compound 444], the IC50 (read-out: Activity (IC50)) is > 1000 nM. As to `CCCCCOc1cccc(C2NC(=O)NC3=C2C(=O)c2ccccc23)c1` (centres unmarked) [Compound 460], the IC50 (read-out: Activity (IC50)) was > 1000 nM. With `O=C1C2=C(NC(=S)NC2c2ccccc2)c2ccccc21` (centres unmarked) [Compound 301], the IC50 (read-out: Activity (IC50)) is < 100 nM. On the same count and under the same terms, in the case of `N#CN=C1NC2=C(C(=O)c3ccccc32)C(c2ccccc2)N1` (centres unmarked) [Compound 956] it was > 1000 nM; in that of `CCC[S+]([O-])c1cccc(C2NC(=O)NC3=C2C(=O)c2cccnc23)c1` (centres unmarked) [Compound 910], > 1000 nM.

As a reminder, the IC50 is the concentration that gives 50% inhibition.
